“Also recorded” adds a separate entry of the source. Like-named read-outs stand apart in the source and are kept apart here. Marks after values point to notes of the source that are not given here.
Assays:
p53 [1] = assay: Western blot of lung proteins: p53 expression and phosphorylation; assay type: in vivo, A/J mice; conditions: lungs at termination of the bioassay
[2] = tested on: alveolar epithelium cells of lung; assay: In situ end-labeling (ISEL/TUNEL) of apoptosis in lung sections; assay type: in vivo, A/J mice
JNK 1 and 2 = assay: Western blot of lung total proteins: JNK phosphorylation; assay type: in vivo, A/J mice; conditions: lung tissue 21 days after B(a)P
[3] = tested on: B(a)P-induced lung adenoma; assay: Tumor bioassay: B(a)P-induced lung tumorigenesis, ITC-NAC conjugates in diet during post-initiation phase
Procedure: The ITC conjugates were incorporated (15 μmol/g diet) into AIN-76A diets (5% corn oil) by mixing with dextrose prior to diet preparation. The conjugates, 9.36 g BITC-NAC (15 mmol) or 9.79 g PEITC-NAC (15 mmol), were dissolved in 50 ml ethyl acetate, and then mixed with 200 g dextrose to ensure even coating of dextrose particles. After mixing with dextrose, the solvent was removed using a rotary evaporator and further dried using a vacuum pump (2-3 h). Diets were prepared in 1-2 kg batches, and were stored at 4° C. in a container purged with nitrogen. […] Stability was determined by extraction of 0.5 g portions of the diet with 2.5 ml methanol (2×). The methanol extracts were combined and a 1 ml aliquot was filtered using a 0.47 μm syringe filter. A 10 μl sample was then analyzed on HPLC (Jiao, et al., Chem. Res. Toxicol., 9: 932-938, 1996).
Tumor Bioassay: Female strain A mice (Jackson Laboratories, Bar Harbor, Me.) of four weeks of age were housed under quarantine in polycarbonate cages (5 mice/cage) and provided modified AIN 76A diet (5% corn oil) and acidified drinking water ad libitum. The mice were maintained on a 12 h light: 12 h dark regimen at 22±5° C. and 50±20% relative humidity. After one week, the mice were weighed, and distributed into four groups containing 30 to 35 mice on the basis of body weight. At seven weeks of age, the mice in groups 1-3 were gavaged with a single dose of 20 μmol B(a)P in 0.2 ml cottonseed oil; group 4 received the vehicle only. Two days after dosing with the carcinogen, diets containing BITC-NAC (15 μmol/g, Group 2) and PEITC-NAC (15 μmol/g, Group 3) were provided. Groups 1 (B[a]P control) and 4 (vehicle only) remained on the modified AIN-76A diet with 5% corn oil. Tap water was provided ad libitum during the course of the bioassay. Mice were observed daily; diets were replenished on the fourth day of the week, and completely replaced on the seventh day. Mice were weighed weekly for four weeks, then monthly and at termination. At 84 days after B(a)P dosing, four mice per group were killed (CO2, cervical dislocation) to harvest lung tissues for molecular and immunohistochemical studies and to quantify lung adenomas, if present. At 140 days after B(a)P, the remaining mice in each group were killed. The number of lung tumors was recorded; lobes of lungs were placed in 10% phosphate buffered formalin for histological and immunohistochemical analysis. The remaining lung lobes were snap frozen in liquid nitrogen.
Mean tumor multiplicity and body weights at each time point were compared between groups using Student's T test.

[4] = Stability of conjugates in AIN-76A diet (methanol extraction, HPLC); assay type: physicochemical; conditions: stored at 4° C. under nitrogen
Procedure: The ITC conjugates were incorporated (15 μmol/g diet) into AIN-76A diets (5% corn oil) by mixing with dextrose prior to diet preparation. […] After mixing with dextrose, the solvent was removed using a rotary evaporator and further dried using a vacuum pump (2-3 h). Diets were prepared in 1-2 kg batches, and were stored at 4° C. in a container purged with nitrogen. […] Stability was determined by extraction of 0.5 g portions of the diet with 2.5 ml methanol (2×). The methanol extracts were combined and a 1 ml aliquot was filtered using a 0.47 μm syringe filter.

[5] = tested on: NNK/B(a)P-induced lung adenomas and adenocarcinomas; conditions: for mean numbers of lung adenomas compared with carcinogen control mice: at termination; for Adenocarcinoma Incidence (%) / Adenocarcinoma Multiplicity mean ± SD / Adenoma Incidence (%) / Adenoma Multiplicity mean ± SD: preliminary
Procedure: The test compounds were given in the diet on week 21 after beginning of a weekly dose of a mixture of NNK/B(a)P: 3 μmol each (621 μg NNK and 756 μg B(a)P) in 0.1 ml cottonseed oil for eight weeks (a total of 8 doses) (groups 1 to 10); only vehicle (cottonseed oil) for groups 11 to 15. Animals were then given experimental diet for 20 weeks until week 40. Four mice in groups 1, 2, 4, 6, 8, and 10 (see Table 1) were sacrificed on weeks 20, 38, and 40. The bioassay was terminated on week 52. If sufficient numbers of tumors were developed in mice killed on week 40, the bioassay was terminated at week 40. Tumors (adenomas and carcinomas) were quantified by multiplicity and incidence. At sacrifice, livers and lungs were harvested and the tissues rinsed in autoclaved PBS, stored in labeled foil, and snap frozen in liquid nitrogen. These tissues both tumorous and non-tumorous were processed by histology for biomarker studies (TUNEL, PCNA,p53, […] kinases, etc.). Lungs were examined by histology at termination (52 week or 40 week) for adenomas and carcinomas).
In this study, the potential protective effects of ITCs and ITC-NACs against progression of lung adenomas to malignant tumors were investigated. Lung tumors were induced in A/J mice with 3 μmol B(a)P plus 3 μmol NNK (gavage once/wk, 8 wks); mice were maintained on AIN-76A semi-purified diets. […] Diets containing PEITC (phenethyl ITC) or SFN (sulforaphane), each at 3 mmol/kg and 1.5 mmol/kg diet; PEITC-NAC or SFN-NAC at 8 mmol/kg and 4 mmol/kg diet; and NAC at 8 mmol/kg diet were then provided to groups of 28 mice (high dose) or 20 mice (low dose) during weeks 20 to 40 after initiation. Four mice in each high dose treatment group were killed during weeks 28 and 40 to monitor tumor incidence and progression; lung tissues were used for molecular studies. Remaining mice were killed at 40 weeks for histopathological examination. […] To assess molecular events occurring during the treatments, lung RNA of mice treated with B(a)P+NNK/control diet and B(a)P+NNK/PEITC-NAC high dose diet was examined using a Mouse Cancer Pathway Finder Gene Array.

p53 [6] = conditions: mouse epidermal cell line, with accompanying apoptosis; cited from earlier work
[7] = tested on: p53 (−/−) mouse embryo fibroblasts; conditions: cited from earlier work
[8] = tested on: aberrant crypt foci in the colon; conditions: oral, after or independent of timing of azoxymethane; cited from earlier work
A549 cells = assay: Apoptosis in A549 cells treated with TPA, PEITC-NAC or TPA plus PEITC-NAC (photography, DAPI staining); assay type: cell-based, human; conditions: 100 nM TPA
Source text: Assay for single cell DNA strand breaks: A549 cells treated with or without TPA, PEITC-NAC or TPA plus PEITC-NAC were collected at the times specified in the text, cytocentrifuged and stained with 4′-6′diamidino-2-phenylindole (DAPI). The photographs were taken using an Olympus AX 70 microscope (Melville, N.Y.) with fluorescence and SPOT RT Slider digital image system (Diagnostic Instruments Inc., Sterling Heights, Mich.). Arrows indicated the typical apoptotic features of DNA strand breakage and nuclear fragmentation.
TPA (100 nM) was added to A549 cells 12 h prior to addition of PEITC-NAC, which was added 24 h before photography of cells, protein isolation, or DAPI staining. […] These cells were treated identically, but were stained with the DNA fluorochrome DAPI.

[9] = tested on: AP-1 binding activity in A549 cells; assay: EMSA of AP-1 binding activity in A549 cells; assay type: cell-based, human; design: AP-1 binding activity: dose or concentration left out as unconfirmed; conditions: for 24 h
Procedure: Cell Lines: The human lung adenocarcinoma cell line A549 was obtained from the American Type Culture Collection (ATCC) (Bethesda, Md.). […] Cells were grown at 37° C. with 5% CO2.
Reagents: The PEITC was obtained from Aldrich (Milwaukee, Wis.) and its N-acetylcysteine conjugate was synthesized in house by the Organic Synthesis Facility using the method described previously (Kassahun et al., Chem Res Toxicol 1997, 10(11):1228-33). Unless specified otherwise, the A549 cells were treated with 10 or 25 μM of PEITC-NAC. TPA (12-O-tetradecanoylphorbol-13-acetate) was purchased from Sigma (St. Louis, Mo.).
Electrophoretic Mobility Shift Assay (EMSA): Double-stranded oligonucleotides containing the consensus-binding site for AP-1 were purchased commercially (Santa Cruz Biotech). The oligos were labeled with γ-^32P-ATP (6000 Ci/mmol, Armeshem Pharmacia Biotech. Inc Piscataway, N.J.) using polynucleotide kinase (Promega, Madison, Wis.) according to standard procedures. The labeled DNA was incubated with 5 μg of total proteins (as specified in the Results section) for 10 min at room temperature, in the presence of 1 μg of poly d(I)-d(C) oligomer (Roche Molecular Biochemicals, Indianapolis, Ind.) and DNA-binding buffer as described previously (Yang et al., Cell Growth Differ 1993, 4(7):595-602). The complexes were then separated on a 7.5% polyacrylamide gel and autoradiographed.
Proteins Isolation: Cells were incubated in a 37° C. with 5% CO2, followed by mock or treatments specified in the results section. Total proteins were then isolated using RIPA buffer. The protease inhibitors aprotinin (1 μg/ml), leupeptin (1 μg/ml), pepstatin (1 μg/ml), phenylmethylsulfonyl fluoride (0.1 mM) and the phosphatase inhibitor Na3VO4 (1 mM), NaF (1 mM) were added to all buffers. The protein concentrations were determined using the Coomassie Plus Protein Assay Reagent (Pierce, Rockford, Ill.), and aliquots of the proteins were stored at −80° C.

[10] = high dose (3 or 8 mmol/kg diet)
[11] = high dose (PEITC, SFN 3 mmol/kg diet; PEITC-NAC, SFN-NAC, NAC 8 mmol/kg diet)
[12] = low dose (1.5 or 4 mmol/kg diet)
[13] = low dose (PEITC, SFN 1.5 mmol/kg diet; PEITC-NAC, SFN-NAC 4 mmol/kg diet)

| SMILES | mean numbers of lung adenomas compared with carcinogen control mice [5] | Adenocarcinoma Incidence (%) [5, 10] | Adenocarcinoma Multiplicity mean ± SD [5, 10] | Adenoma Incidence (%) [5, 10] | Adenoma Multiplicity mean ± SD [5, 11] | Adenocarcinoma Incidence (%) [5, 12] | Adenocarcinoma Multiplicity mean ± SD [5, 12] | Adenoma Incidence (%) [5, 12] | Adenoma Multiplicity mean ± SD [5, 13] | aberrant crypt foci formation [8] | other results |
| --- | --- | --- | --- | --- | --- | --- | --- | --- | --- | --- | --- |
| CC(=O)N[C@@H](CSC(=S)NCc1ccccc1)C(=O)O [BITC-NAC, benzyl isothiocyanate-NAC] |  |  |  |  |  |  |  |  |  |  | phosphorylation of p53 at Ser15 (p53 [1]): moderate increase; increase in apoptosis, non-tumorous lung tissue ([2]; after 140 days): 2.4 fold; apoptotic index, fold elevation ([2]; lung tissue at 84 days, before tumors appeared): approximately 2 fold; JNK 1 (p46) phosphorylation level (JNK 1 and 2): increase; JNK 2 (p54) phosphorylation (JNK 1 and 2): only slightly induced; tumor multiplicity ([3]; 15 μmol/g diet after B(a)P, at termination, B(a)P control 6.1±3.1): 3.7±2.9 tumors/mouse; Tumor Incidence (%), lung adenoma ([3]; 15 μmol/g diet from 2 days after 20 μmol B(a)P, 140 days): 94%; Tumor multiplicity (no. of tumors/mice), lung adenoma ([3]; 15 μmol/g diet from 2 days after 20 μmol B(a)P, 140 days, mean ± SD): 3.72 ± 2.90^b no. of tumors/mice; average body weight at termination ([3]; 15 μmol/g diet, controls 25.8 g and 25.7 g): 22.9 g; tumor reduction ([3]; versus B(a)P control diet group, at termination): 39%; stability in diet [4]: stable for at least one month |
| CC(=O)N[C@@H](CS)C(=O)O [NAC, N-acetyl-L-cysteine] | decreases were significant | 4/8 (50%) | 1.10 ± 1.51 | 8/8 (100%) |  |  |  |  |  |  |  |
| S=C=NCCc1ccccc1 [PEITC, phenethyl isothiocyanate] |  | 6/32 (19%)* |  | 31/32 (96.90%) | 8.81 ± 3.96 | 7/20 (35%) | 1.15 ± 1.85 | 19/20 (95%) | 7.25 ± 4.43 | inhibited foci formation | p53 transactivation (p53 [6]): induces p53 transactivation in a dose- and time-dependent manner; Overall % Survival ([5]; high dose, adjusted for scheduled sacrifices, control 29.8%): 21.10%; induction of apoptosis [7]: did not induce apoptosis |
| C[S+]([O-])CCCCN=C=S (centres unmarked) [SFN, sulforaphane] |  | 10/32 (31.3%) | 0.84 ± 1.48 | 30/32 (93.8%) | 8.84 ± 5.72 | 4/20 (20%) | 0.30 ± 0.64 | 20/20 (100%) | 9.25 ± 4.15 | inhibited foci formation | malignant tumor multiplicity ([5]; low dose groups, initiated control group 2.1): 0.9 tumors/mouse |
| CC(=O)NC(CSC(=S)NCCCC[S+](C)[O-])C(=O)O (centres unmarked) [SFN-NAC, sulforaphane-NAC] | decreases were significant | 5/31 (16.13%) | 0.42 ± 1.01 | 31/31 (100%) | 9.06 ± 5.35 | 2/19 (10.53%) | 0.32 ± 0.92 | 18/19 (94.74%) | 8.53 ± 4.32 |  |  |
| CCCCCCCCCCCCCC(=O)O[C@@H]1[C@@H](C)[C@@]2(O)[C@@H](C=C(CO)C[C@]3(O)C(=O)C(C)=C[C@@H]23)[C@@H]2C(C)(C)[C@]12OC(C)=O [TPA, 12-O-tetradecanoylphorbol-13-acetate] |  |  |  |  |  |  |  |  |  |  | cell growth / apoptosis with TPA alone (A549 cells): appear to be growing well; also recorded: did not cause apoptosis in A549 cells; AP-1 binding activity [9]: specifically induced |
